Experimental data: patent publication US20030228324A1, “Peptide compositions and methods of producing and using same” (priority 1999, published 2003)
“Also recorded” adds a separate entry of the source.

Key:
P1 wild-type = assay: Active immunization with peptide, mice, P1 wild-type challenge; assay type: in vivo, Pseudomonas aeruginosa; details: immunized animals (FIGS. 4, 5)
Procedure: (§1) A.BY/SnJ mice were actively immunized at week 0 with 40-50 μg of peptide-tetanus toxoid conjugate mixed with 100 μg of Adjuvax as adjuvant in 50 μl of 10 mM PBS at pH 7.2. Control mice were given 50 μ of 10 mM PBS at pH 7.2 containing 100 μg of Adjuvax. […] Each test group and the control group consisted of ten animals. The effectiveness of the vaccine was determined by the survival rate of the test animals up to 48 hours.

AcKB7(128-144)OH = assay: Competition ELISA, antiserum affinity for KB7 peptide; assay type: binding, Pseudomonas aeruginosa; details: for cross-reactivity of the antiserum with KB7: antiserum raised to the named peptide
AcPAO(128-144)OH [1] = molecular target: AcPAO(128-144)OH (Pseudomonas aeruginosa, UniProt P04739); assay type: binding; details: for cross-reactivity of the antiserum with PAO: antiserum raised to the named peptide
[2] = tested on: Pseudomonas aeruginosa agarose beads; assay: Active intratracheal model, CF mice; assay type: in vivo; details: 10 days post i.t. challenge
AcP1(126-148)OH = assay: Competition ELISA, antiserum affinity for P1 peptide; assay type: binding, Pseudomonas aeruginosa; details: for cross-reactivity of the antiserum with P1: antiserum raised to the named peptide
KB7 wild-type = assay: Active immunization with peptide, mice, KB7 wild-type challenge; assay type: in vivo, Pseudomonas aeruginosa; details: immunized animals (FIG. 6)
Procedure: as §1

AcPAK(128-144)OH = AcPAK(128-144)OH (Pseudomonas aeruginosa, UniProt P02973); assay type: binding
[3] = tested on: Pseudomonas aeruginosa strain PAO; details: in vivo
[4] = tested on: peptide antigen used to raise the antiserum; assay: Competition ELISA, antiserum affinity for its own peptide antigen; parameters: species or system Pseudomonas aeruginosa; details: peptide giving 50% inhibition of antibody binding to PAK pilin; read-out: Antigen I50
AcPAO(128-144)OH [5] = assay type: binding, Pseudomonas aeruginosa; details: cross-reactivity of an antiserum: affinity for native PAK over native PAO peptide, 1 = same affinity
PAK wild-type = assay: Active immunization with peptide, mice, PAK wild-type challenge; assay type: in vivo, Pseudomonas aeruginosa; details: immunized animals (FIG. 7)
Procedure: as §1

[6] = fold increase (+) or decrease (−) in affinity compared to antiserum 17-01

## KCKSDQDPQFIPKGCSK [CS1]
P1 wild-type
  protection after P1 wild-type challenge: effective in protecting; also recorded: high level of protection
AcKB7(128-144)OH
  cross-reactivity of the antiserum with KB7: moderate cross-reactivities
AcPAO(128-144)OH [1]
  cross-reactivity of the antiserum with PAO: very high cross-reactivities
[2]; immunized i.n. & i.p.
  Colony Forming Units in BAL Fluid: 47 CFU (× 10^3)/mL
  White Blood Cell Counts in BAL Fluid, Total Cells: 4 (× 10^4)/mL
[2]; immunized i.n.
  Colony Forming Units in BAL Fluid: 0 CFU (× 10^3)/mL
  White Blood Cell Counts in BAL Fluid, Total Cells: 1 (× 10^4)/mL
[2]; immunized i.p.
  Colony Forming Units in BAL Fluid: 5 CFU (× 10^3)/mL
  White Blood Cell Counts in BAL Fluid, Total Cells: 28 (× 10^4)/mL
AcP1(126-148)OH
  cross-reactivity of the antiserum with P1: moderate cross-reactivities
KB7 wild-type
  protection after KB7 wild-type challenge: effective in protecting; also recorded: good protection
AcPAK(128-144)OH; antiserum raised to the named peptide
  cross-reactivity of the antiserum with PAK: very high cross-reactivities

## KCKSTQDEMFTPKGCSK [CS4]
P1 wild-type
  protection after P1 wild-type challenge: good protection

## KCTSDQDEQFIPKGCSK [PAK, reference compound]
AcPAO(128-144)OH [1]
  cross-reactivity of the antiserum with PAO: cross-reactive with the native PAO sequence
[3]
  protection / survival time after PAO wild-type challenge: does not provide protection against PAO challenge

## KCTSDQDPQFIPKGCSK [E135P]
[4]
  IC50: 0.7 µM
AcKB7(128-144)OH
  cross-reactivity of the antiserum with KB7: not able to effectively bind; also recorded: not cross-reactive
AcKB7(128-144)OH; [6]
  KB7 A: −1.2
AcKB7(128-144)OH; peptide giving 50% inhibition of antibody binding to PAK pilin, read-out: KB7 I50
  IC50: 835 µM
AcPAO(128-144)OH [1]
  cross-reactivity of the antiserum with PAO: not able to effectively bind; also recorded: less cross-reactive than native PAK antiserum; also recorded: less cross-reactive to PAO than PAK peptide
AcPAO(128-144)OH [1]; competition ELISA on PAK pili, read-out: I50 for PAO
  IC50: 4750 µM
AcPAO(128-144)OH [1]; [6]
  PAO A: −19.7
AcPAO(128-144)OH [5]
  KPAK/KPAO: 11,600
AcP1(126-148)OH
  cross-reactivity of the antiserum with P1: not cross-reactive
AcP1(126-148)OH; competition ELISA on PAK pili, read-out: I50 for P1
  IC50: 176 µM
AcP1(126-148)OH; [6]
  PI A: +6.9
AcPAK(128-144)OH; competition ELISA on PAK pili, read-out: I50 for PAK
  IC50: 0.41 µM
AcPAK(128-144)OH; [6]
  PAK A: −2.2

## KCTSTQDPQFIPKGCSK [CS2]
P1 wild-type
  protection after P1 wild-type challenge: high level of protection
AcPAO(128-144)OH [1]
  cross-reactivity of the antiserum with PAO: enhanced cross-reactivity to PAO
PAK wild-type
  protection after PAK wild-type challenge: very high level of protection
[3]
  protection / survival time after PAO wild-type challenge: complete protection

## KCTSTQDPQFTPKGCSK [CS3]
P1 wild-type
  protection after P1 wild-type challenge: high level of protection
